Experimental data published in patent US12410141B2, “Anti-cancer spirocyclic-guanidine compounds and uses thereof” (The Johns Hopkins University, priority 2020, dated 2025).
Where “and” joins values, the source holds several entries; their conditions need not be identical. Equal values may be shown once.

Tests used:
[1] = tested on: SKOV3; assay: MTT cytotoxicity assay, SKOV3; assay type: cell-based; conditions: SKOV3, ovarian, 72 hr, read-out: IC50, cell killing
Description: (§1) All cell lines were obtained from the American Type Culture Collection (ATCC) and cultured in the specified medium supplemented with 10% fetal bovine serum, 100 IU/mL penicillin, and 100 μg/mL streptomycin at 37° C. in a humidified 5% CO2/95% air incubator. To assess drug cytotoxicity cells were seeded at 2,500 cells/well (10,000 cells/well for MM lines and primary cells) in 100 μL medium in 96-well plate. […]
(§2) It was examined whether the RPN13 inhibitor, RA475, was cytotoxic for cancer cell lines using the MTT assay.

[2] = tested on: BT549; assay: MTT cytotoxicity assay, BT549; assay type: cell-based; conditions: BT549, breast, 72 hr, read-out: IC50, cell killing
Description: as §1, §2

[3] = tested on: MDA-MB-468; assay: MTT cytotoxicity assay, MDA-MB-468; assay type: cell-based; conditions: MDA-MB-468, breast, 72 hr, read-out: IC50, cell killing
Description: as §1, §2

[4] = tested on: HepG2; assay: MTT cytotoxicity assay, HepG2; assay type: cell-based; conditions: HepG2, liver, 72 hr, read-out: IC50, cell killing
Description: as §1, §2

[5] = tested on: TC1; assay: MTT cytotoxicity assay, TC1; assay type: cell-based; conditions: TC1, cervical, 72 hr, read-out: IC50, cell killing
Description: as §1, §2

[6] = tested on: PEA1; assay: MTT cytotoxicity assay, PEA1; assay type: cell-based; conditions: PEA1, ovarian, 72 hr, read-out: IC50, cell killing
Description: as §1, §2

[7] = tested on: CD-1 mice; assay: Single-dose tolerability in CD-1 mice; assay type: in vivo, mouse
Description: All animal procedures were performed according to protocols approved by the Johns Hopkins University Animal Care and Use Committee, and in accordance with the AAALAC recommendations for the proper use and care of laboratory animals (protocol MO15M375, renewed as MO18M129). Four to six week old female CD-1 mice were purchased from Jackson Laboratories (ME, USA). Isoflurane anesthesia was used during imaging. The health conditions and/or criteria under which early euthanasia or withdrawal of an animal from the study was implemented included, but are not limited to, general signs of distress such as hunched posture, lethargy, anorexia, dehydration, rough hair coat and/or those that are directly related to the experimental procedures e.g. loss of weight >10%, lethargy, restricted movement of limbs, distended abdomen. Animals in distress were euthanized by carbon dioxide asphyxiation, and cervical dislocation was used to ensure death. This is an acceptable form of euthanasia for mice and in compliance with the recommendations of the Panel on Euthanasia of the American Veterinary Medical Association.
RA475 powder was directly dissolved in 25% β-hydroxy propyl cyclodextrin as a clear solution and administered at increasing single doses to CD-1 mice (n=3) via intraperitoneal injection.

[8] = tested on: HCC1806 cells stably expressing 4UbFL; assay: 4UbFL proteasome reporter, HCC1806 cells; assay type: cell-based; conditions: 4 hr treatment, IVIS imager
Description: Data are presented as IVIS image (FIG. 8A) and bioluminescence units (FIG. 8B).
4T1 and HCC1806 cells were transfected with 4UbFL plasmid using TransIT2020 transfection reagent for a period of 48 hrs and cells were selected using G418 antibiotic from single colonies. Selected cells were seeded in a 24-well plate (50,000/well) and incubated for 18 h at 37° C. in an incubator. Next, cells were treated with compounds for the period of 4 hr and Luciferin was added (50 uL each well, 7.8 mg/mL) and imaged through an IVIS200 instrument and plotted as a bioluminescent value or fold increase to DMSO control.

[9] = tested on: ID8-Vegf Defb29 cells stably expressing firefly luciferase in C57BL6 mice; assay: ID8-Luc syngeneic ovarian tumor model; assay type: in vivo, mouse; conditions: female C57BL6 mice, 40 mg/Kg every 3 days, i.p.
Description: Whereas vehicle treatment (n=7) increased tumor burden and ascites formation.
Briefly, female C57BL6 mice were injected (i.p.) with ID8-Vegf Defb29 cells stably expressing firefly luciferase (0.5×10^6 cells) in PBS (100 uL). After 72 hrs, mice were imaged for their basal luminescence levels using an IVIS200 imager. Mice with visible luminescence were randomized into two groups and treated with Vehicle (25% b-hydroxy propylcyclodextrin in water, 200 uL, every 3 days, i.p.) and RA475 (40 mg/Kg, every 3 days, i.p.). Mice were imaged every week to measure bioluminescence expressed by tumor after administration of luciferin (100 uL, 7.8 mg/mL).

[10] = assay type: in vitro ADME, murine and human
Description: Human and mouse liver microsomes and NADPH regenerating system solutions were purchased from Corning Life Sciences (Tewsbury, MA). Human and mouse K2EDTA was purchased from BioIVT (Westbury, NY). Metabolic studies in liver microsomes (0.125 mg/mL) were conducted in 1× phosphate buffered saline (pH 7.4), NADPH-generating system, and 10 μM of RA475 in a final volume of 250 μl. An incubation mixture with and without NADPH-generating system as well as a neat solution without microsomes and NADPH-generating system were prepared. RA475 was added at the same concentration level into human and mouse EDTA plasma. All reactions were initiated with the addition of RA475. Incubations were performed in glass tubes maintained at 37° C. in a shaker bath. At 0, 30, and 60 minutes, 10 μL aliquots were sampled from the reaction mixture and 0.5 mL of acetonitrile containing internal standard (Up284) was added to each samples. Samples were vortex-mixed and underwent centrifugation for 5 min at 1430×g. […] The column effluent was monitored using an AB Sciex 5500 triple quadrupole mass spectrometer. […] Results were assessed qualitatively comparing the average area ratio of RA475 at 0 hr to area ratio at 30 and 60 minutes for both mouse and human liver microsomes. RA475 was not analyzed for metabolites due to the concentration of RA475 not decreasing. […]

Cl.Cl.N#Cc1ccc(/C=C2/C(=O)/C(=C/c3ccc(C#N)cc3)C23CCN(C(=N)N)CC3)cc1 [RA475]
IC50 [1]: 300 nM and 190 nM | IC50 [2]: 229 nM | IC50 [3]: 292 nM | IC50 [4]: 241 nM | IC50 [5]: 217 nM | IC50 [6]: 406 nM | NOAEL ([7]; single dose, intraperitoneal, 80 mg/Kg highest dose level tested): > 80 mg/kg | adverse events ([7]; single i.p. doses at or below 80 mg/Kg): No evidence of adverse events, including weight loss | bioluminescence of 4UbFL reporter [8]: dose-dependent increase | body weight [9]: no weight loss | effect on tumor (bioluminescence) [9]: regressed tumor | survival [9]: enhanced survival

N#Cc1ccc(/C=C2/C(=O)/C(=C/c3ccc(C#N)cc3)C23CCNCC3)cc1 [Up284, reference compound]
non-enzymatic degradation [10]: ~50% | additional degradation by CYP450 activity ([10]; microsomes): 9-13%
